Assay results: publication PMC12439760 (Bioorganic & medicinal chemistry, 2025)

How the values were obtained:
hCB1 receptor [1] = target: T1, hCB1 receptor (Homo sapiens, UniProt P21554); assay: hCB1 Gαq16-coupled calcium mobilization assay in CHO-K1 cells; assay type: cell-based; conditions: hCB1 Ca EC50, CHO cells expressing hCB1 and Gαq16, calcium mobilization
hCB2 receptor [2] = target: T2, hCB2 receptor (Homo sapiens, UniProt P34972); assay: hCB2 Gαq16-coupled calcium mobilization assay in CHO-K1 cells; assay type: cell-based; conditions: hCB2 Ca EC50, CHO cells expressing hCB2 and Gαq16, calcium mobilization
Human liver microsome = assay type: in vitro ADME; conditions: pooled human liver microsomes, pH 7.4
CYP1A2 = CYP1A2 induction assay in HepaRG cells; assay type: cell-based, human; conditions: 10 μM, 24 hrs, % of positive control 50 μM omeprazole
CYP2B6 = CYP2B6 induction assay in HepaRG cells; assay type: cell-based, human; conditions: 10 μM, 24 hrs, % of positive control 1 mM phenobarbital
CYP3A4 = CYP3A4 induction assay in HepaRG cells; assay type: cell-based, human; conditions: 10 μM, 24 hrs, % of positive control 10 μM rifampicin
[3] = Mouse pharmacokinetic study; assay type: in vivo, C57BL/6 mice
hCB1 receptor [4] = target: T1, hCB1 receptor; assay: [3H]CP55940 radioligand displacement, CHO cell membranes overexpressing hCB1; assay type: binding
hCB2 receptor [5] = target: T2, hCB2 receptor; assay: [3H]CP55940 radioligand displacement, CHO cell membranes overexpressing hCB2; assay type: binding
[6] = system: CYP3A4, CYP1A2 and CYP2B6; assay: Isoform-specific CYP induction assays in HepaRG cells, overall profile; assay type: cell-based, human; conditions: data not shown

T1 sequence (P21554 whole entry): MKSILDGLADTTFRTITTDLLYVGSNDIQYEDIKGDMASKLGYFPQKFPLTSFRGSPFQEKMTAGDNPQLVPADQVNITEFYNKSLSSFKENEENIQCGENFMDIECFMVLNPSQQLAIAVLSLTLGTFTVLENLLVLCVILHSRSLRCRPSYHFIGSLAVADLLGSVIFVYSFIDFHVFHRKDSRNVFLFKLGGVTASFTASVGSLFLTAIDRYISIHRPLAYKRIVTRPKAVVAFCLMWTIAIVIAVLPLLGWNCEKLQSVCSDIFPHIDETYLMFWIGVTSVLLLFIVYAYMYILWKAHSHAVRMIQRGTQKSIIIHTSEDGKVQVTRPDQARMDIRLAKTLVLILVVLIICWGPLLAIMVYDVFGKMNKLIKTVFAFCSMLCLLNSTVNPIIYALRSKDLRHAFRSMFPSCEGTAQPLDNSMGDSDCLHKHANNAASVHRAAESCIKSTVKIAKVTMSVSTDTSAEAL
T2 sequence (P34972 whole entry): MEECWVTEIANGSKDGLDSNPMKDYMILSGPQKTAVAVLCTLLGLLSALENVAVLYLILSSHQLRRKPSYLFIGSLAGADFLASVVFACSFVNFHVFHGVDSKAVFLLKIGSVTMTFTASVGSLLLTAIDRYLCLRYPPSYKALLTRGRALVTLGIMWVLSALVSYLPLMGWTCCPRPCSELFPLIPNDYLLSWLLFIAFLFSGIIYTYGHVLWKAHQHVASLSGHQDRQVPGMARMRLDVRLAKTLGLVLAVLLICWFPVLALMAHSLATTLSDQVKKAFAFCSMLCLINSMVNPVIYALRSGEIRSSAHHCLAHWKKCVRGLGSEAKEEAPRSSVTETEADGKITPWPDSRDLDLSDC

Structure (SMILES)	EC50 (hCB1 receptor [1])	EC50 (hCB2 receptor [2])	half-life at 1 μM (Human liver microsome)	microsomal CLint at 1 μM (Human liver microsome)	CYP1A2 Induction (% of Omeprazole) (CYP1A2)	CYP2B6 Induction (% of Phenobarbital) (CYP2B6)	CYP3A4 Induction (% of Rifampicin) (CYP3A4)	Max. Conc. Brain ([3]; mouse, PO 3 mg/kg, at 0.5 h)	Max. Conc. Liver ([3]; mouse, PO 3 mg/kg, at 0.5 h)	Max. Conc. Plasma ([3]; mouse, PO 3 mg/kg, at 0.5 h)	Plasma Half-life (HL) ([3]; mouse, PO 3 mg/kg, 3 mg/kg)	Max. Conc. Brain ([3]; mouse, IP 2.5 mg/kg, at 0.25 h)	Max. Conc. Liver ([3]; mouse, IP 2.5 mg/kg, at 0.25 h)	Max. Conc. Plasma ([3]; mouse, IP 2.5 mg/kg, at 0.25 h)	Ki (hCB1 receptor [4])	Ki (hCB2 receptor [5])	plasma levels ([3]; mice, 3 mg/kg po, data not shown)	CYP induction profile (in words) [6]
CC(C)(NC(=O)c1nn(Cc2ccc(F)cc2F)c2ccccc12)c1cccc(C(N)=O)c1 [Compound 45, N-[2-(3-Carbamoylphenyl)propan-2-yl]-1-[(2,4-difluorophenyl)methyl]-1H-indazole-3-carboxamide]	151 ± 32 nM	35 ± 6 nM	> 3.33 h	< 5 µL/min/mg	20%	6%	66%	11 ng/mL	920 ng/mL	160 ng/mL	7.3 h							
CC(C)(NC(=O)c1nn(Cc2ccc(F)cc2)c2ccccc12)c1cccc(C(N)=O)c1 [Compound 24, N-[2-(3-Carbamoylphenyl)propan-2-yl]-1-[(4-fluorophenyl)methyl]-1H-indazole-3-carboxamide]	25 ± 5 nM		2.05 h	5 µL/min/mg	<1%	<1%	<1%					1.4 ng/mL	650 ng/mL	72 ng/mL				
CC(C)(NC(=O)c1nn(CC2CCOCC2)c2ccccc12)c1cccc(C(N)=O)c1 [Compound 51, N-[2-(3-Carbamoylphenyl)propan-2-yl]-1-(oxan-4-ylmethyl)-1H-indazole-3-carboxamide]			3.13 h	3.3 µL/min/mg											150 nM	56 nM	< 30 ng/mL	profile similar to that of 45
